Here are results for 21 compounds from patent publication US8299301B2 (priority 2007, dated 2012).

Where two headings read alike, the source gives them in different places.

For data set [1] the following is noted: pH 2.3.
Another data set concerns Puccinia recondite. Briefly: Puccinia test (wheat) / protective. The format is in vivo. The note with it: 240 h, read-out: efficacy. As for the experimental part: Puccinia Test (Wheat)/Protective
(§1) To produce a suitable preparation of active compound, 1 part by weight of active compound is mixed with the stated amounts of solvent and emulsifier, and the concentrate is diluted with water to the desired concentration.
To test for protective activity, young plants are sprayed with the active compound preparation at the stated application rate. After the spray coating has dried on, the plants are sprayed with a conidia suspension of Puccinia recondite. The plants remain in an incubation cabin at 20° C. and 100% relative atmospheric humidity for 48 hours. The plants are then placed in a greenhouse at a temperature of about 20° C. and a relative atmospheric humidity of 80% to promote the development of rust pustules.
Evaluation is carried out 10 days after the inoculation. 0% means an efficacy which corresponds to that of the control, whereas an efficacy of 100% means that no infection is observed.

Data set [2] deals with Erysiphe graminis f.sp. hordei. Kind of data set: Erysiphe test (barley) / protective. The data set is classed as in vivo. The note with it: Blumeria graminis, 168 h, read-out: efficacy. As for the experimental part:
Erysiphe Test (Barley)/Protective
as §1
To test for protective activity, young plants are sprayed with the active compound preparation at the stated application rate. After the spray coating has dried on, the plants are dusted with spores of Erysiphe graminis f.sp. hordei. The plants are placed in a greenhouse at a temperature of about 20° C. and a relative atmospheric humidity of about 80% to promote the development of mildew pustules.
Evaluation is carried out 7 days after the inoculation. 0% means an efficacy which corresponds to that of the control, whereas an efficacy of 100% means that no infection is observed.

The test system of the next data set is Sphaerotheca fuliginea. Briefly: Sphaerotheca test (cucumber) / protective. The format is in vivo. The conditions noted are these: Podosphaera fuliginea, 168 h, read-out: efficacy. The protocol:
Sphaerotheca Test (Cucumber)/Protective [table] To produce a suitable preparation of active compound, 1 part by weight of active compound is mixed with the stated amounts of solvent and emulsifier, and the concentrate is diluted with water to the desired concentration. To test for protective activity, young cucumber plants are sprayed with the active compound preparation at the stated application rate. 1 day after the treatment, the plants are inoculated with a spore suspension of Sphaerotheca fuliginea.

[3] abbreviates: wheat, protective, active compound concentration 1000 ppm, evaluation 10 days after inoculation.
The mark [4] stands for this setting: barley, protective, active compound concentration 1000 ppm, evaluation 7 days after inoculation.
Where [5] appears, read: cucumber, protective, active compound concentration 500 ppm, evaluation 7 days after inoculation.

Turning to “4-(3-tertButylphenoxy)-5-trifluoromethyl-2-methylnitrobenzene”, the “log P (pH2.3)” value in data set [1] was determined as 5.68.

Compound `Cc1cc(Oc2cccc(C(C)(C)C)c2)c(C(F)(F)F)cc1N` [4-(3-tertButylphenoxy)-5-trifluoromethyl-2-methylaniline] yielded a logP in the data set “logP determination” (pH 2.3, log P (pH2.3), pH 2.3) of 4.67.

On to `Cc1c([N+](=O)[O-])ccc(Cl)c1C(F)(F)F` [4-Chloro-3-trifluoromethyl-2-methylnitrobenzene], for which, in the data set “logP determination” (HCOOH), the “log P (HCOOH)” value is 3.60.

Regarding `CCN(C)C=Nc1cc(CF)c(Oc2ccc(Cl)c(C(C)(C)C)c2)cc1C` [Compound 1, N-ethyl-N-methyl-N′-[4-(3-tert-butyl-4-chlorophenoxy)-5-fluoromethyl-2-methylphenyl]formamidine], the pest or weed control at 1000 ppm (in the data set on Puccinia recondite (setting [3]); in data set [2] (setting [4])) was at least 70% in each case. This compound showed a logP in the data set “logP determination” (logP acid, acid) of 2.93.

Regarding `CCN(C)C=Nc1cc(CF)c(-c2ccc(C(C)(C)C)cc2)cc1C` [Compound 2, N-ethyl-N-methyl-N′-[4-(4-tert-butylphenyl)-5-fluoromethyl-2-methylphenyl]formamidine], the pest or weed control at 1000 ppm (in the data set on Puccinia recondite (setting [3]); in data set [2] (setting [4])) was at least 70% each time. In “logP determination” (logP acid, acid), this compound had a logP of 2.67.

For the compound `CCN(C)C=Nc1cc(C(F)(F)F)c(Oc2ccc(Cl)c(C(C)(C)C)c2)cc1C` [Compound 3, N-ethyl-N-methyl-N′-[4-(3-tert-butyl-4-chlorophenoxy)-5-trifluoromethyl-2-methylphenyl]formamidine], the pest or weed control at 500 ppm in the data set on Sphaerotheca fuliginea (setting [5]) was at least 70%. Further, the pest or weed control at 1000 ppm (in the data set on Puccinia recondite (setting [3]); in data set [2] (setting [4])) was at least 70% throughout. The logP in the data set “logP determination” (logP acid, acid) worked out at 3.26; in the data set “logP determination” (logP neutral, neutral), 6.68.

As for `CCN(C)C=Nc1cc(C(F)(F)F)c(Oc2cccc(C(C)C)c2)cc1C` [Compound 4, N-ethyl-N-methyl-N′-[4-(3-iso-propylphenoxy)-5-trifluoromethyl-2-methylphenyl]formamidine], the pest or weed control at 500 ppm with Sphaerotheca fuliginea was at least 70%. The pest or weed control at 1000 ppm (in the data set on Puccinia recondite; in data set [2]) was at least 70% each time. The logP in “logP determination” (logP acid, acid) was determined as 2.65; in the data set “logP determination” (logP neutral, neutral) it was 5.74.

For `CCN(C)C=Nc1cc(C(F)(F)F)c(Oc2ccc(Cl)c(C(F)(F)F)c2)cc1C` [Compound 5, N-ethyl-N-methyl-N′-[4-(3-trifluoromethyl-4-chlorophenoxy)-5-trifluoromethyl-2-methylphenyl]formamidine], the pest or weed control at 500 ppm in the data set with Sphaerotheca fuliginea (setting [5]) was at least 70%. Also, the logP in “logP determination” (logP acid, acid) amounted to 2.81; in “logP determination” (logP neutral, neutral) it was 5.77.

Regarding `CCCN(C)C=Nc1cc(C(F)(F)F)c(Oc2ccc(Cl)c(C(F)(F)F)c2)cc1C` [Compound 6, N-propyl-N-methyl-N′-[4-(3-trifluoromethyl-4-chlorophenoxy)-5-trifluoromethyl-2-methylphenyl]formamidine], the pest or weed control at 500 ppm in the data set with Sphaerotheca fuliginea (setting [5]) was at least 70%. The pest or weed control at 1000 ppm (in the data set on Puccinia recondite (setting [3]); in data set [2] (setting [4])) was at least 70% each time. Moreover, the logP came to 3.01 in the data set “logP determination” (logP acid, acid) and 6.15 in “logP determination” (logP neutral, neutral).

In “logP determination” (acid), `Cc1cc(Oc2ccc(Cl)c(C(F)(F)F)c2)c(C(F)(F)F)cc1N=CN1CCCCC1` [Compound 7, N-piperidinyl-N′-[4-(3-trifluoromethyl-4-chlorophenoxy)-5-trifluoromethyl-2-methylphenyl]formamidine] displayed a logP acid of 2.98. This compound had a logP neutral in “logP determination” (neutral) of 6.19.

In the case of `Cc1cc(Oc2ccc(Cl)c(C(C)(C)C)c2)c(C(F)(F)F)cc1N=CN(C)C` [Compound 8, N,N-dimethyl-N′-[4-(3-tert-butyl-4-chlorophenoxy)-5-trifluoromethyl-2-methylphenyl]formamidine], in the data set with Sphaerotheca fuliginea (setting [5]), the pest or weed control at 500 ppm was at least 70%. The pest or weed control at 1000 ppm (in the data set with Puccinia recondite (setting [3]); in data set [2] (setting [4])) was at least 70% in each case. The logP in the data set “logP determination” (logP acid, acid) is 3.13; in “logP determination” (logP neutral, neutral), 6.3.

In the case of `CCN(C)C=Nc1cc(C(F)F)c(Oc2ccc(Cl)c(C(C)(C)C)c2)cc1C` [Compound 9, N-ethyl-N-methyl-N′-[4-(3-tert-butyl-4-chlorophenoxy)-5-difluoromethyl-2-methylphenyl]formamidine], the pest or weed control at 500 ppm in the data set on Sphaerotheca fuliginea (setting [5]) was at least 70%. Further, the pest or weed control at 1000 ppm (with Puccinia recondite (setting [3]); in data set [2] (setting [4])) was at least 70% in each case. This compound also gave a logP in “logP determination” (logP acid, acid) of 2.82.

Regarding `CCN(C)C=Nc1cc(C(F)F)c(Oc2ccc(Cl)c(Cl)c2)cc1C` [Compound 10, N-ethyl-N-methyl-N′-[4-(3,4-dichlorophenoxy)-5-difluoromethyl-2-methylphenyl]formamidine], the pest or weed control at 500 ppm with Sphaerotheca fuliginea was at least 70%. Moreover, the pest or weed control at 1000 ppm (in the data set on Puccinia recondite; in data set [2]) was at least 70% each time. In “logP determination” (logP acid, acid), this compound yielded a logP of 2.31.

As to `CCN(C)C=Nc1cc(C(F)(F)F)c(Oc2cccc(C(C)(C)C)c2)cc1C` [Compound 11, N-ethyl-N-methyl-N′-[4-(3-tert-butylphenoxy)-5-trifluoromethyl-2-methylphenyl]formamidine], the logP in the data set “logP determination” (logP acid, acid) was determined as 2.52; in the data set “logP determination” (logP neutral, neutral), 6.04; in “logP determination” (pH 2.3, log P (pH2.3), pH 2.3), 2.52.

`CCN(C)C=Nc1cc(C(F)(F)F)c(-c2ccc(C(C)(C)C)cc2)cc1C` [Compound 12]: the pest or weed control at 500 ppm in the data set with Sphaerotheca fuliginea is at least 70%. In addition, the pest or weed control at 1000 ppm (in the data set on Puccinia recondite; in data set [2]) was at least 70% in each case. Also, the logP in the data set “logP determination” (logP acid, acid) amounted to 2.74; in the data set “logP determination” (logP neutral, neutral), 6.15.

`CCN(C)C=Nc1cc(C(F)F)c(Oc2ccccc2)cc1C` [Compound 13, N-ethyl-N-methyl-N′-[4-phenoxy-5-difluoromethyl-2-methylphenyl]formamidine]: in the data set on Sphaerotheca fuliginea, the pest or weed control at 500 ppm was at least 70%. In addition, the logP in the data set “logP determination” (logP acid, acid) stood at 1.73.

In “logP determination” (acid), `Cc1cc(Oc2cccc(C(C)C)c2)c(C(F)F)cc1N=CN1CCCCC1` [Compound 14, N-piperidinyl-N'-[4-(3-iso-propylphenoxy)-5-difluoromethyl-2-methylphenyl]formamidine] gave a logP acid of 2.60.

Turning to `CCN(C)C=Nc1cc(C(F)F)c(Oc2cccc(C(C)O)c2)cc1C` (centres unmarked) [Compound 15, N-ethyl-N-methyl-N′-{4-[3-(1-hydroxyethyl)-phenoxy]-5-difluoromethyl-2-methylphenyl}formamidine], the pest or weed control at 500 ppm in the data set on Sphaerotheca fuliginea was at least 70%. For the same compound, the logP in the data set “logP determination” (logP acid, acid) amounted to 1.65.

With `CCN(C)C=Nc1cc(C(F)F)c(Oc2cccc(C(C)F)c2)cc1C` (centres unmarked) [Compound 16, N-ethyl-N-methyl-N′-{4-[3-(1-fluoroethyl)-phenoxy]-5-difluoromethyl-2-methylphenyl}formamidine], the pest or weed control at 500 ppm with Sphaerotheca fuliginea (setting [5]) is at least 70%. In the data set “logP determination” (logP acid, acid), this compound showed a logP of 2.17.

For the compound `CCN(C)C=Nc1cc(C(F)F)c(Oc2ccc(Cl)c(C(C)C)c2)cc1C` [Compound 17, N-ethyl-N-methyl-N′-[4-(3-isopropyl-4-chlorophenoxy)-5-difluoromethyl-2-methylphenyl]formamidine], the logP in “logP determination” (logP acid, acid) was found to be 2.97.

As for `CCN(C)C=Nc1cc(C(F)F)c(Oc2cccc(C(C)C)c2)cc1C` [Compound 18, N-ethyl-N-methyl-N′-[4-(3-iso-propylphenoxy)-5-difluoromethyl-2-methylphenyl]formamidine], the logP in “logP determination” (logP acid, acid) came to 2.5.
